Paper PMC5383603 (Journal of Korean Medical Science, 2017)
Where two headings read alike, the source gives them in different places.

How the values were obtained:
gastric acid secretion = details: cited from earlier work
[1] = mean ± SD
[2] = Adverse events in the clinical study; type: in vivo, healthy Korean volunteers; details: CYP2C19 PM group; 20 mg oral once daily for 8 days

Compound: COc1c(C)cnc(C[S+]([O-])c2nc3ccc(O)cc3[nH]2)c1C (stereo not drawn) [5-O-demethylomeprazole]
- effect on gastric acid secretion (gastric acid secretion): does not have an effect on gastric acid secretion

Compound: COc1ccc2nc(S(=O)(=O)Cc3ncc(C)c(OC)c3C)[nH]c2c1 [omeprazole sulfone]
- Metabolic ratio omeprazole sulfone (AUC0→12hr, omeprazole sulfone/AUC0→12hr, omeprazole) ([1]; multiple dosing, EM (n = 8)): 2.04 ± 2.39
- Metabolic ratio omeprazole sulfone (AUC0→12hr, omeprazole sulfone/AUC0→12hr, omeprazole) ([1]; multiple dosing, IM (n = 6)): 0.87 ± 0.19
- Metabolic ratio omeprazole sulfone (AUC0→12hr, omeprazole sulfone/AUC0→12hr, omeprazole) ([1]; multiple dosing, PM (n = 8)): 0.90 ± 0.30
- Metabolic ratio omeprazole sulfone (AUC0→12hr, omeprazole sulfone/AUC0→12hr, omeprazole) ([1]; single dosing, EM (n = 8)): 0.78 ± 0.17
- Metabolic ratio omeprazole sulfone (AUC0→12hr, omeprazole sulfone/AUC0→12hr, omeprazole) ([1]; single dosing, IM (n = 6)): 2.89 ± 2.63
- Metabolic ratio omeprazole sulfone (AUC0→12hr, omeprazole sulfone/AUC0→12hr, omeprazole) ([1]; single dosing, PM (n = 8)): 0.65 ± 0.08

Compound: COc1ccc2[nH]c([S+]([O-])Cc3ncc(C)c(OC)c3C)nc2c1 (stereo not drawn) [omeprazole, reference compound]
- duration of effect after a single dose (gastric acid secretion; drug still effective after a single dose): 24 to 72 h
- omeprazole-related adverse event [2]: No omeprazole-related adverse event
